Assay results taken from US20260374752A1, “COMPOUNDS, COMPOSITIONS, AND METHODS” (Tenvie Therapeutics, Inc., priority 2023, published 2026).
Read-outs that look alike come from different tables or passages of the source.

Biological target: T1, (Homo sapiens, UniProt Q96P20)
T1 construct: IL-1β ELISA of supernatant
Experiment: IL-1β secretion assay in THP-1 cells (PMA differentiated, LPS and nigericin stimulated; ELISA)
Assay type: cell-based
Protocol: Biochemical Assay of the Compounds
Procedure for Culturing THP-1 Cells
Compounds as provided herein were tested in the following assay. Cell culture medium employed contained RPMI 1640 medium (89%), FBS (10%), Pen/Strep (1%), and 2-mercaptoethanol (0.05 mM). Freezing medium was made up of 90% FBS and 10% DMSO. THP-1 cells were removed from the liquid nitrogen and placed into a 37 °C water bath to thaw, until signs of ice dissipated. The cells were then added to 9 mL of warm cell culture medium and centrifuged for 5 minutes at 1000 rpm. The supernatant was discarded, and the cells were resuspended in new cell culture medium. THP-1 cells were then split and cultured in the cell culture medium, being passaged every 2-3 days with the cell density will be maintained between 5×10^5 and 1.5×10^6 viable cells/mL.
To freeze, cells were resuspended with fresh freezing medium, adjusting the cell density to 5×10^6 cells/mL. The cell suspension was partitioned into 1 mL aliquots per vial, and the vials were transferred to a −80 °C freezer. After one day at −80 °C, the cell vials were transferred to liquid nitrogen freezer for storage.
Procedure for IL-Iβ Secretion Assay in 384-Well Plates
PMA was dissolved in DMSO to make a stock solution at 5 mg/ml and stored in 10 μl aliquots at −20 °C for single use. PMA is added to normal growth medium. LPS was diluted with 1 mL of water solution to provide a 1 mg/mL stock solution and stored in 15 μL aliquots at −20 °C for single use. Nigericin is diluted in ice cold 100% ethanol to 5 mg/ml (6.7 mM) and stored in 75 μL aliquots at −20 °C for single use. Serum-free media contains RPMI 1640 medium (99%), Pen/Strep (1%), and 2-mercaptoethanol (0.05 mM). The two control conditions used to qualify and normalize test compound dose-response curves were as follows: High Control=25 ng/mL LPS, 5 μM Nigericin, 0.5% DMSO, Low Control=25 ng/ml, LPS, 0.5% DMSO.
Day 1: Differentiation with PMA
THP-1 cells were diluted to provide a suspension at a concentration of 1.0×10^6 cells/mL with the total volume of suspension required to enable the desired number of assay plates. The growth media was supplemented with PMA (5 ng/mL final concentration) and the cells were incubated at 37 °C under a humidified atmosphere of 5% CO2 for 40 h.
Day 3: Plating with Sequential LPS and Nigericin Stimulation
All media was carefully aspirated from each culture flask. The cells were washed carefully with 1× DPBS. The cells were then briefly digested with trypsin LE for 5 minutes at 23 °C and immediately resuspended in cell growth media. After resuspension, the cells were centrifuged at 1000 rpm for 3 minutes and the supernatant was discarded. The cells were resuspended in DPBS and once again centrifuged at 1000 rpm for 5 minutes. The supernatant was discarded and the cell pellet was resuspended in serum-free media supplemented with LPS (25 ng/mL final concentration) to enable the distribution of 30K THP-1 cells within 45 μL of media into each well of 384-well PDL-coated plates. The 384-well plates were then incubated at 37 °C under a humidified atmosphere of 5% CO2 for 2 h. Following this period, test compounds were dispensed by Tecan across the desired concentration range with all wells normalized to a final 0.5% DMSO concentration. The plates were then then incubated at 37 °C under a humidified atmosphere of 5% CO2 for 1 h. Following this period, 5 μL of the […] nigericin stock solution was added to each of the appropriate wells and plates were centrifuged at 1000 rpm for 30 seconds. The plates were the immediately reintroduced to the incubator at 37 °C under a humidified atmosphere of 5% CO2 for 2 h. After this time, 35 μL/well of supernatant was collected and transferred into v-bottom plate and centrifuged at 1000 rpm for 1 minute. These supernatant aliquots were analyzed using an IL-Iβ detection kit as described below. If needed, the test samples could be snap frozen and stored at −80 °C until analyzed. […]

[1] = inhibition of IL-1β secretion, 25 ng/mL LPS, 5 μM Nigericin, 0.5% DMSO, read-out: Activity (IC50)
[2] = inhibition of IL-1β secretion, 25 ng/mL LPS, 5 μM Nigericin, 0.5% DMSO, read-out: Activity (IC50 class)

T1 sequence (Q96P20 whole entry): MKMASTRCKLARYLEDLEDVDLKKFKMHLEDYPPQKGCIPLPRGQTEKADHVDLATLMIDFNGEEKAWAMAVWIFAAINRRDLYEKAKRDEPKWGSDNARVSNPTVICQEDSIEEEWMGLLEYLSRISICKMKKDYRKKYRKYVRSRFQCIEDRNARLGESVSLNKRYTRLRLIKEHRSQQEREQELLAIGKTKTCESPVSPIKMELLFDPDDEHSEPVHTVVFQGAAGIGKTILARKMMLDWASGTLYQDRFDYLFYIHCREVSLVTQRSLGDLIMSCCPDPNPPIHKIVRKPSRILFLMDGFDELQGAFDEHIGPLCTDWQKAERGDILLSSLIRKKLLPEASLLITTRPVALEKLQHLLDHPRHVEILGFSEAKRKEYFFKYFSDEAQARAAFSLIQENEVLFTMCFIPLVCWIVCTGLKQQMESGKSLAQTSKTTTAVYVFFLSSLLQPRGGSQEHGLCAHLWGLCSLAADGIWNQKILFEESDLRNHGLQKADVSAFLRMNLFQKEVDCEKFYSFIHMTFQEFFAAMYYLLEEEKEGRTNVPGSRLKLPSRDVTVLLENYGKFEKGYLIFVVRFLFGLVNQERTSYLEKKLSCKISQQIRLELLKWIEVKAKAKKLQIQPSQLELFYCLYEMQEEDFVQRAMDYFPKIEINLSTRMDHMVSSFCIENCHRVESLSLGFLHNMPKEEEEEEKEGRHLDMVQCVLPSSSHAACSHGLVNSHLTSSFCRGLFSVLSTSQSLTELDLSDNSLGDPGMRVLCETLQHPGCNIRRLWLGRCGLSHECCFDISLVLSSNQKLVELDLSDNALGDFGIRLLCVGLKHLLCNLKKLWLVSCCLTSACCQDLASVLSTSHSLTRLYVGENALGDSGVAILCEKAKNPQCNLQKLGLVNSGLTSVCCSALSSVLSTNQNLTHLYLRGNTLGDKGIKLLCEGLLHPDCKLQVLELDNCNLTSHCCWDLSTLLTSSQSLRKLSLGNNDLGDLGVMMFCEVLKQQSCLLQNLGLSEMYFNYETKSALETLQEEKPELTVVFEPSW

O=C(CN1C(=O)c2ccc(Br)cc2[C@]2(C(F)(F)F)C[C@H]12)Nc1ncc(F)cn1 (single isomer, unassigned) [compound 3, 2-[trans-6-bromo-3-oxo-7b-(trifluoromethyl)-1,1a-dihydrocyclopropa[c]isoquinolin-2-yl]-N-(5-fluoropyrimidin-2-yl) acetamide]
IC50 [1]: 9500 nM
IC50 [2]: 1000 to 10000 nM

O=C(CN1C(=O)c2ccc(Br)cc2[C@]2(C(F)(F)F)C[C@H]12)Nc1ncc(F)cn1 (single isomer, unassigned) [compound 2, 2-[trans-6-bromo-3-oxo-7b-(trifluoromethyl)-1,1a-dihydrocyclopropa[c]isoquinolin-2-yl]-N-(5-fluoropyrimidin-2-yl) acetamide]
IC50 [1]: 270 nM
IC50 [2]: < 1000 nM

O=C(CN1C(=O)c2ccc(Br)cc2[C@@H]2C[C@@H]21)Nc1ncc(F)cn1 (relative stereo) [compound 5, 2-(cis-6-bromo-3-oxo-1a,7b-dihydro-1H-cyclopropa[c]isoquinolin-2-yl)-N-(5-fluoropyrimidin-2-yl) acetamide]
IC50 [1]: 800 nM
IC50 [2]: < 1000 nM

O=C(CN1C(=O)c2ccc(Br)cc2[C@@H]2CCC[C@@H]21)Nc1ncc(F)cn1 (relative stereo) [compound 1, 2-(cis-8-bromo-5-oxo-2,3,3a,9b-tetrahydro-1H-cyclopenta[c]isoquinolin-4-yl)-N-(5-fluoropyrimidin-2-yl) acetamide]
IC50 (read-out: Activity (IC50), inhibition of IL-1β secretion, 25 ng/mL LPS, 5 μM Nigericin, 0.5% DMSO): 700 nM
IC50 (read-out: Activity (IC50 class), inhibition of IL-1β secretion, 25 ng/mL LPS, 5 μM Nigericin, 0.5% DMSO): < 1000 nM

O=C(CN1C(=O)c2ccc(Br)cc2[C@@H]2CC[C@@H]21)Nc1ncc(F)cn1 (relative stereo) [compound 4, 2-(cis-7-bromo-4-oxo-1,2,2a,8b-tetrahydrocyclobuta[c]isoquinolin-3-yl)-N-(5-fluoropyrimidin-2-yl) acetamide]
IC50 [1]: 240 nM
IC50 [2]: < 1000 nM
